Data: publication PMC5438088 (ChemMedChem, 2015)
“And” between values parts separate entries of the source, which are not always exact repeats. Identical values can stand only once. Like-named read-outs stand apart in the source and are kept apart here.

Legend:
SHMT = details: cited from earlier work
hcSHMT [1] = biological target: T1, hcSHMT (Homo sapiens, UniProt P34896); assay: Isothermal titration calorimetry; format: binding; details: ITC, 25°C, 10 mM glycine
T1 sequence (P34896 1-483): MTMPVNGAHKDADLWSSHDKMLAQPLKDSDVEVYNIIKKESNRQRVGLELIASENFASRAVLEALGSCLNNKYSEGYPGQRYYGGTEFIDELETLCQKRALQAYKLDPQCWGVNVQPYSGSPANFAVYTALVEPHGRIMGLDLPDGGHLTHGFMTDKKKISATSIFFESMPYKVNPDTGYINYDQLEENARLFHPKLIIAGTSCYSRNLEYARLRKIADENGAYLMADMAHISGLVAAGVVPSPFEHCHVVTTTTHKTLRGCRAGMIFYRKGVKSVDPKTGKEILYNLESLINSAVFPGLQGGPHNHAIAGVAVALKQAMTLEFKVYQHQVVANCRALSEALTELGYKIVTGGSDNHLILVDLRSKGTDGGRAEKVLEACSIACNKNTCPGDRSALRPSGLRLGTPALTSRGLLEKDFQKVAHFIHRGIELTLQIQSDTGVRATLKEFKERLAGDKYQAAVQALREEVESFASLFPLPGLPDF

hcSHMT [2] = biological target: T1, hcSHMT; format: binding

Nc1nc2c(c(=O)[nH]1)N(C=O)C(CNc1ccc(C(=O)N[C@@H](CCC(=O)O)C(=O)O)cc1)CN2 (stereo partly shown) [Leucovorin, 5-formyltetrahydrofolate]
inhibition of SHMT (SHMT; both SHMT isoforms): potent, low-micromolar inhibitor | n (binding stoichiometry) (hcSHMT [1]): 0.51±0.03 | ΔH (heat of binding) (hcSHMT [1]): 4.64 ± 0.39 kcal/mol | ΔS (hcSHMT [1]): 42.4 cal mol^−1/deg | Kd (hcSHMT [1]): 1.36 ± 0.49 µM | Kd (hcSHMT [2]): 1.5 µM

Nc1nc2c(c(=O)[nH]1)C[C@@H](CCc1ccc(C(=O)N[C@@H](CCC(=O)O)C(=O)O)cc1)CN2 [Lometrexol]
ΔH (heat of binding) (hcSHMT [1]): 3.50 ± 0.06 kcal/mol | ΔS (hcSHMT [1]): 38.0 cal mol^−1/deg | n (binding stoichiometry) (hcSHMT [1]; listed as LTX): 0.53±0.05 | Kd (hcSHMT [1]): 2 µM and 1.99 µM | inhibition mechanism (hcSHMT [2]; with respect to leucovorin, double reciprocal plot): competitive inhibitor

CC1(C)N=C(N)N=C(N)N1c1ccc(CCCCc2ccc(S(=O)(=O)F)cc2Cl)c(Cl)c1.CCS(=O)(=O)O [NSC127755]
inhibition of SHMT (SHMT): irreversible inhibitor

Nc1nc2[nH]cc(CCc3ccc(C(=O)N[C@@H](CCC(=O)O)C(=O)O)cc3)c2c(=O)[nH]1 [Pemetrexed, (S)-2-[4-[2-(4-amino-2-oxo-3,5,7-triazabicyclo[4.3.0]nona-3,8,10-trien-9-yl)ethyl]benzoyl] aminopentanedioic acid]
inhibition of hcSHMT (SHMT; hcSHMT): low micromolar inhibitor
